Laboratory results reported in PMC7366380, “Discovery of a Potent and Selective Covalent Inhibitor and Activity-Based Probe for the Deubiquitylating Enzyme UCHL1, with Antifibrotic Activity” (Journal of the American Chemical Society, 2020).
“And” between values parts separate entries of the source, which are not always exact repeats. Identical values can stand only once.

Key:
UCHL1 [1] = target: T1, UCHL1 (Homo sapiens, UniProt P09936); experiment: UCHL1 inhibitor kinetic analysis (Ub-AMC fluorescence intensity); format: biochemical; parameters: rapidly targets endogenous UCHL1 in cells; endogenous in cells; host or cells: HEK293; conditions: UCHL1 3 nM, Ub-AMC 130 nM; read-out: kobs/I
T1 sequence (P09936 1-223): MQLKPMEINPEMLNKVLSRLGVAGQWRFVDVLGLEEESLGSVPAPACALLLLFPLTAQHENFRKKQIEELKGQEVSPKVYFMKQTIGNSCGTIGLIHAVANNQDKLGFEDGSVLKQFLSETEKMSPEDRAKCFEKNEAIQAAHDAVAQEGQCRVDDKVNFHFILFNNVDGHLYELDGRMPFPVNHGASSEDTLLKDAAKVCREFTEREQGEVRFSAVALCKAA

FGFR2 = FGFR2 (Homo sapiens, UniProt P21802); experiment: In-cell proteome-wide competitive ABPP, HEK293: FGFR2; conditions: HEK293, compound 60 min, then 2 (20 nM) 10 min
UCHL1 [2] = target: T1, UCHL1; experiment: ABP 2 labeling in HEK293 cells, AzTB ligation, in-gel fluorescence; conditions: HEK293, time course
[3] = target: DUBs and other proteins in HEK293 cells (Homo sapiens, UniProt P51784); experiment: Quantitative chemical proteomic profiling of ABP 2 in HEK293 cells: other DUBs and proteins across the proteome; conditions: USP11, listed as ABP 2
[4] = target: DUBs and other proteins in HEK293 cells (Homo sapiens, UniProt Q92905); experiment: as above; conditions: COPS5, listed as ABP 2
[5] = target: DUBs and other proteins in HEK293 cells (Homo sapiens, UniProt Q7L5N1); experiment: as above; conditions: COPS6, listed as ABP 2
[6] = target: T2, DUBs and other proteins in HEK293 cells (Homo sapiens, UniProt P51665); experiment: as above; conditions: PSMD7, listed as ABP 2
T2 sequence (P51665 1-324): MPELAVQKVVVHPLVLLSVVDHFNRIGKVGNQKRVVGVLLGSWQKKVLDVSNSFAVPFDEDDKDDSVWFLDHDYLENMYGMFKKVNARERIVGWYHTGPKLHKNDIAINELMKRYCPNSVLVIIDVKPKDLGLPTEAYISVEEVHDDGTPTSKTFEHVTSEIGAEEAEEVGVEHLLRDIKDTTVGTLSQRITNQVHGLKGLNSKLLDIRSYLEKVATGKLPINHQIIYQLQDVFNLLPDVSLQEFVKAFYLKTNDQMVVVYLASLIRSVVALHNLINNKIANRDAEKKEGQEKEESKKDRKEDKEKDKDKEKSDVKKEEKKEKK

[7] = target: T3, DUBs and other proteins in HEK293 cells (Homo sapiens, UniProt P45974); experiment: as above; conditions: USP5, listed as ABP 2
T3 sequence (P45974 1-858): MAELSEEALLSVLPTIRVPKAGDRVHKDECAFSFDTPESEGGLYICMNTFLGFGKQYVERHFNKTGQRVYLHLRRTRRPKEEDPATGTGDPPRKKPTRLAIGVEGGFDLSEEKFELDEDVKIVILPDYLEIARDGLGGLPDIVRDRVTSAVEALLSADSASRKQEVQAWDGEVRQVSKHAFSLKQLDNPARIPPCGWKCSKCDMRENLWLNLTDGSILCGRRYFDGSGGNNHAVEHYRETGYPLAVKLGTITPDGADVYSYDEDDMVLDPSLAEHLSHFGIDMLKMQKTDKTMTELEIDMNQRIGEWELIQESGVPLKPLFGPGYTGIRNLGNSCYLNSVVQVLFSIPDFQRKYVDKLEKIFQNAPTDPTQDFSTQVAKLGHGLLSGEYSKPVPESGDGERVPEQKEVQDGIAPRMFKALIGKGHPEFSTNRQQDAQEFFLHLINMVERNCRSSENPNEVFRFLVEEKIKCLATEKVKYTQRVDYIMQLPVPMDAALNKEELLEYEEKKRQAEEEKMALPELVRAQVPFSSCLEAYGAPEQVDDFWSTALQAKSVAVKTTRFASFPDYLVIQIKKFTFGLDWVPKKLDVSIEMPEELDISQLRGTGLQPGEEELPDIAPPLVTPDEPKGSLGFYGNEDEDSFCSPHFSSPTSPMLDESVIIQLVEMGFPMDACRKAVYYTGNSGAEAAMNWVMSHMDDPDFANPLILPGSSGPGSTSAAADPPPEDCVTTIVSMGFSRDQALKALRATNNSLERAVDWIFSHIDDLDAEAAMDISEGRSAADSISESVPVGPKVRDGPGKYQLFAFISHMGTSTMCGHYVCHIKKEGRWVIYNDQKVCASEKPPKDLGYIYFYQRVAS

[8] = tested on: primary human bronchial fibroblasts from IPF patients
[9] = 200 nM, 180 min, replicates A,C

Sequence of DUBs and other proteins in HEK293 cells (Homo sapiens, UniProt Q92905) (Q92905 whole entry): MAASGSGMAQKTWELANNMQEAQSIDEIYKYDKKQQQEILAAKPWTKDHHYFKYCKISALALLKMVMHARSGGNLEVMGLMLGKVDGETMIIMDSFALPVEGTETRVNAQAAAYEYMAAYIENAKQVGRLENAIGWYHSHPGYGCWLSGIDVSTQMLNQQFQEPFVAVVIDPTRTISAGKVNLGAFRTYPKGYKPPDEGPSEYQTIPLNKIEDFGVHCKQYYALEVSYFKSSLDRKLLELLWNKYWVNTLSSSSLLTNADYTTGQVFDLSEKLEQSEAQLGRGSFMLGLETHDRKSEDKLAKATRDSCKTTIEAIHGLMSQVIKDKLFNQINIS
Sequence of DUBs and other proteins in HEK293 cells (Homo sapiens, UniProt P51784) (P51784 whole entry): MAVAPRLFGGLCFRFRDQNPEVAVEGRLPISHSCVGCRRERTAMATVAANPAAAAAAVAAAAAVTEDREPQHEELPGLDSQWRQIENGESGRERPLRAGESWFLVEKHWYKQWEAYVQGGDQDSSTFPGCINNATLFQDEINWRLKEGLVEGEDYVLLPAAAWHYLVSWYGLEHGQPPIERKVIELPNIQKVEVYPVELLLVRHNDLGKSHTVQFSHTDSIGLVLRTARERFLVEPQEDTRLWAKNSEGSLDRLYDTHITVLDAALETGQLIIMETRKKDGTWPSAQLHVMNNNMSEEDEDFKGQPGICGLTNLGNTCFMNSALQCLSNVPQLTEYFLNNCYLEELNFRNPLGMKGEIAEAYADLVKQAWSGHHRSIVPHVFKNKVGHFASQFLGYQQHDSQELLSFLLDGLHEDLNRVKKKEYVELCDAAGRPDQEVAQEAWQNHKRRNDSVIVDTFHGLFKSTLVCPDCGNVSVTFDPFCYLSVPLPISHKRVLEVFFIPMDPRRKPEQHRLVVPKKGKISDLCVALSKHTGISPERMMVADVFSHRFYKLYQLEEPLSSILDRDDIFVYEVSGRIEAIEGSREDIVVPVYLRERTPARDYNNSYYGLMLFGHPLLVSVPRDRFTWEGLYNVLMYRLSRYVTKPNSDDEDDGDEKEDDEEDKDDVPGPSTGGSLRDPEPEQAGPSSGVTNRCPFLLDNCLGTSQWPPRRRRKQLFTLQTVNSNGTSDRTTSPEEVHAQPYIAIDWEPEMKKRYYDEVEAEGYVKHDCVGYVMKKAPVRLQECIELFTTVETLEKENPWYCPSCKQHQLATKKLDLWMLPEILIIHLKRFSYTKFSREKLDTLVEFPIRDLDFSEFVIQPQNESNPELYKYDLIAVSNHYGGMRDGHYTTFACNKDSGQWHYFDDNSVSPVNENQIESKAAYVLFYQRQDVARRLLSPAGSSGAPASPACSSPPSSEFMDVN
Sequence of DUBs and other proteins in HEK293 cells (Homo sapiens, UniProt Q7L5N1) (Q7L5N1 whole entry): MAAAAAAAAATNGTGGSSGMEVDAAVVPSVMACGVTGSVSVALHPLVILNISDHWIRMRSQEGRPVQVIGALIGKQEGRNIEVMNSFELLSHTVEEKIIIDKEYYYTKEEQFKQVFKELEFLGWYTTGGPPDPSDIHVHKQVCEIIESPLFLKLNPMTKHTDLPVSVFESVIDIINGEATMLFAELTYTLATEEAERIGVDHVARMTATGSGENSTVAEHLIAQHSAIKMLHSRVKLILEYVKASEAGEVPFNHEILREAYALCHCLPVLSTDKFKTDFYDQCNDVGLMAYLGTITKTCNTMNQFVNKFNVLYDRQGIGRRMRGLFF
Sequence of FGFR2 (P21802 22-821): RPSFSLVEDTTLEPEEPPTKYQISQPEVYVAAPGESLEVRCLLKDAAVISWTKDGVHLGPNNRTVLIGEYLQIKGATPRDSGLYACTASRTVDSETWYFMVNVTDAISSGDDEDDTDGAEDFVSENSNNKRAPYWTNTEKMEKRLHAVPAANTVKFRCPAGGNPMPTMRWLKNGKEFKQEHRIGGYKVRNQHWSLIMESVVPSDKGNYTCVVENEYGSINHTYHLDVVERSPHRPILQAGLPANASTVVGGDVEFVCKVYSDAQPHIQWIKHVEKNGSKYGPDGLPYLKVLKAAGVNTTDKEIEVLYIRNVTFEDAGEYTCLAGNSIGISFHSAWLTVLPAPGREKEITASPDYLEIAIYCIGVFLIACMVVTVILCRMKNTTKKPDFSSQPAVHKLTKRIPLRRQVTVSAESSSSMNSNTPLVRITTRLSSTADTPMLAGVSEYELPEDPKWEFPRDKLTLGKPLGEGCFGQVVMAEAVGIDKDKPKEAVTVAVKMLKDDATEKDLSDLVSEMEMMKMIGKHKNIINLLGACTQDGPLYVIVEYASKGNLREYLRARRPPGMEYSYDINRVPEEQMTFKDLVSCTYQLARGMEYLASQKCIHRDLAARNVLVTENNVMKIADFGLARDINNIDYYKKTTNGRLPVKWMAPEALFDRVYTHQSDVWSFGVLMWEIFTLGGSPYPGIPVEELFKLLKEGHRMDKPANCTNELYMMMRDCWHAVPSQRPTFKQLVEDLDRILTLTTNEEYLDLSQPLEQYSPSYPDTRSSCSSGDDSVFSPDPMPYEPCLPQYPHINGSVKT

## N#CN1CCC[C@H]1C(=O)N1CCc2c(-c3c[nH]c4ncccc34)cccc21 [Compound 1]
UCHL1 [1]
  kinact/KI: 7400 M⁻¹ s⁻¹
FGFR2
  FGFR2 response in proteome-wide competitive ABPP: responds

## C#Cc1cnc2[nH]cc(-c3cccc4c3CCN4C(=O)[C@@H]3CCCN3C#N)c2c1 [Compound 2]
UCHL1 [2]
  time to maximal labeling: ≤ 60 min
[3]; 2 nM, 60 min, replicates A-C
  Log2 reporter intensity values (Log2FC, DMSO substract): 0.1233 and -0.3054 and -0.2167
[3]; 20 nM, 10 min, replicates B,C
  Log2 reporter intensity values (Log2FC, DMSO substract): -0.09443 and -0.2626
[3]; 20 nM, 60 min, replicates A-C
  Log2 reporter intensity values (Log2FC, DMSO substract): -0.4096 and 0.07333 and 0.009688
[3]; 20 nM, 180 min, replicates A-C
  Log2 reporter intensity values (Log2FC, DMSO substract): -0.127 and -0.3984 and -0.1331
[3]; 200 nM, 10 min, replicates B,C
  Log2 reporter intensity values (Log2FC, DMSO substract): 0.008113 and -0.08322
[3]; 200 nM, 60 min, replicates A-C
  Log2 reporter intensity values (Log2FC, DMSO substract): 0.1655 and -0.03212 and -0.2868
[3]; [9]
  Log2 reporter intensity values (Log2FC, DMSO substract): 0.2311 and 0.03651
[4]; 2 nM, 60 min, replicates A-C
  Log2 reporter intensity values (Log2FC, DMSO substract): -0.07206 and -0.06602 and 0.07642
[4]; 20 nM, 10 min, replicates B,C
  Log2 reporter intensity values (Log2FC, DMSO substract): -0.04991 and -0.07182
[4]; 20 nM, 60 min, replicates A-C
  Log2 reporter intensity values (Log2FC, DMSO substract): -0.1096 and -0.2324 and -0.02748
[4]; 20 nM, 180 min, replicates A-C
  Log2 reporter intensity values (Log2FC, DMSO substract): -0.1203 and -0.07618 and -0.1432
[4]; 200 nM, 10 min, replicates B,C
  Log2 reporter intensity values (Log2FC, DMSO substract): -0.09582 and 0.125
[4]; 200 nM, 60 min, replicates A-C
  Log2 reporter intensity values (Log2FC, DMSO substract): 0.01523 and 0.2396 and 0.003556
[4]; [9]
  Log2 reporter intensity values (Log2FC, DMSO substract): 0.05752 and -0.04833
[5]; 2 nM, 60 min, replicates A-C
  Log2 reporter intensity values (Log2FC, DMSO substract): -0.04023 and 0.308
[5]; 20 nM, 10 min, replicates B,C
  Log2 reporter intensity values (Log2FC, DMSO substract): -0.278 and 0.05496
[5]; 20 nM, 60 min, replicates A-C
  Log2 reporter intensity values (Log2FC, DMSO substract): -0.132 and -0.1593 and 0.09464
[5]; 20 nM, 180 min, replicates A-C
  Log2 reporter intensity values (Log2FC, DMSO substract): -0.02381 and 0.4095 and -0.1139
[5]; 200 nM, 10 min, replicates B,C
  Log2 reporter intensity values (Log2FC, DMSO substract): 0.1379 and -0.08033
[5]; 200 nM, 60 min, replicates A-C
  Log2 reporter intensity values (Log2FC, DMSO substract): 0.1575 and 0.03437 and 0.12
[5]; [9]
  Log2 reporter intensity values (Log2FC, DMSO substract): 0.2559 and 0.1548
[6]; 2 nM, 60 min, replicates A-C
  Log2 reporter intensity values (Log2FC, DMSO substract): -0.04989 and -0.02897 and -0.2015
[6]; 20 nM, 10 min, replicates B,C
  Log2 reporter intensity values (Log2FC, DMSO substract): -0.09409 and -0.09867
[6]; 20 nM, 60 min, replicates A-C
  Log2 reporter intensity values (Log2FC, DMSO substract): 0.07866 and 0.1721 and 0.02873
[6]; 20 nM, 180 min, replicates A-C
  Log2 reporter intensity values (Log2FC, DMSO substract): 0.04655 and 0.01609 and -0.03959
[6]; 200 nM, 10 min, replicates B,C
  Log2 reporter intensity values (Log2FC, DMSO substract): 0.1092 and 0.06216
[6]; 200 nM, 60 min, replicates A-C
  Log2 reporter intensity values (Log2FC, DMSO substract): -0.1489 and -0.1748
[6]; [9]
  Log2 reporter intensity values (Log2FC, DMSO substract): -0.06266 and -0.01801
[7]; 2 nM, 60 min, replicates A-C
  Log2 reporter intensity values (Log2FC, DMSO substract): -0.1407 and 0.0289 and 0.1099
[7]; 20 nM, 10 min, replicates B,C
  Log2 reporter intensity values (Log2FC, DMSO substract): 0.1281
[7]; 20 nM, 60 min, replicates A-C
  Log2 reporter intensity values (Log2FC, DMSO substract): 0.06053 and 0.195 and 0.2148
[7]; 20 nM, 180 min, replicates A-C
  Log2 reporter intensity values (Log2FC, DMSO substract): 0.2725 and 0.06742 and 0.2092
[7]; 200 nM, 10 min, replicates B,C
  Log2 reporter intensity values (Log2FC, DMSO substract): 0.2092 and 0.2483
[7]; 200 nM, 60 min, replicates A-C
  Log2 reporter intensity values (Log2FC, DMSO substract): 0.08791 and 0.2394
[7]; [9]
  Log2 reporter intensity values (Log2FC, DMSO substract): 0.2625 and 0.2347

## CC(=O)O/N=C1\C(=O)N(Cc2cc(Cl)ccc2Cl)c2ccc(Cl)cc21 [LDN-57444, reference compound]
[8]
  cytotoxicity (in words): increased cytotoxicity
